Among the data in US20240217983A1, “GPR119 AGONISTS” (Kallyope, Inc., priority 2021, published 2024) are Emax and EC50 values, retold here.

This assay concerns the target T1, human GPR119 (hGPR119) (Homo sapiens, UniProt Q8TDV5).
T1 construct: expressed in transfected cells
T1 sequence (Q8TDV5 1-335): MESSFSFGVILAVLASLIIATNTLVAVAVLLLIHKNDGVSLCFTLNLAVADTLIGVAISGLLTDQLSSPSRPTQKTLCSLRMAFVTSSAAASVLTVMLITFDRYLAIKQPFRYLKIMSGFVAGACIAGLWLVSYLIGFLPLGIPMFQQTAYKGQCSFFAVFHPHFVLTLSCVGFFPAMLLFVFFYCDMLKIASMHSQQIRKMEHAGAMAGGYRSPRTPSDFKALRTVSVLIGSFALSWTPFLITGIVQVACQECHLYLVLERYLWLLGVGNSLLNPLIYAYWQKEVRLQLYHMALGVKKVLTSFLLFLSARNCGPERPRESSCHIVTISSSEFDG
Briefly: cAMP accumulation assay (Cisbio cAMP Gs dynamic HTRF kit) in CHO-K1 cells stably expressing human GPR119. The following applies: 4-parameter fit; for Emax: 1 h, % activity normalized to Max and Min controls; for EC50: 60 minutes at 37° C. It is filed as cell-based. The gist of the method:
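CHO-K1 cells stably expressing hGPR119, used as assay-ready frozen stocks at ~10,000 cells/well, exposed to compound dose-response in stimulation buffer with Tween 80 for 60 min at 37° C. cAMP read by HTRF (665/620 nm ratio), normalised to Max/Min controls; EC50 and Max activity from 4-parameter fit.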
For orientation: cAMP levels reflect the balance of adenylyl cyclase and phosphodiesterase activity.

Structures are written as SMILES.

What is called Emax is the size of the effect at its maximum, as opposed to the concentration needed. The EC50 is the concentration giving half of the maximal effect. High values mean lower potency in that assay, low ones higher potency in that assay. In the case of `COCc1cnc(N2CCC(CCCOc3cc(F)c(CC(=O)N4CCN(C[C@H](O)[C@@H](O)[C@H](O)[C@H](O)CO)CC4)c(F)c3)CC2)nc1` [Example 99, 2-(2,6-difluoro-4-(3-(1-(5-(methoxymethyl)pyrimidin-2-yl)piperidin-4-yl)propoxy)phenyl)-1-(4-((2S,3R,4R,5R)-2,3,4,5,6-pentahydroxyhexyl)piperazin-1-yl)ethan-1-one], the Emax is 100 to 130% and the EC50 was ≤ 100 nM.
On the same counts, the results for `COCc1cnc(N2CCC(CCCCOc3ccc(CC(=O)N4CCN(C[C@H](O)[C@@H](O)[C@H](O)[C@H](O)CO)CC4)c(F)c3)CC2)nc1` [Example 100, 2-(2-fluoro-4-(4-(1-(5-(methoxymethyl)pyrimidin-2-yl)piperidin-4-yl)butoxy)phenyl)-1-(4-((2S,3R,4R,5R)-2,3,4,5,6-pentahydroxyhexyl)piperazin-1-yl)ethan-1-one] are 100 to 130% and 100 to 1000 nM.
In the case of `COCc1cnc(N2CCC(CCCCOc3cc(F)c(CC(=O)N4CCN(C[C@H](O)[C@@H](O)[C@H](O)[C@H](O)CO)CC4)c(F)c3)CC2)nc1` [Example 101, 2-(2,6-difluoro-4-(4-(1-(5-(methoxymethyl)pyrimidin-2-yl)piperidin-4-yl)butoxy)phenyl)-1-(4-((2S,3R,4R,5R)-2,3,4,5,6-pentahydroxyhexyl)piperazin-1-yl)ethan-1-one], the Emax lay within 100 to 130% and the EC50 was ≤ 100 nM.
For the compound `COCc1cnc(N2CCC(CCOCc3ccc(CC(=O)N4CCN(C[C@H](O)[C@@H](O)[C@H](O)[C@H](O)CO)CC4)c(F)c3)CC2)nc1` [Example 103, 2-(2-fluoro-4-((2-(1-(5-(methoxymethyl)pyrimidin-2-yl)piperidin-4-yl)ethoxy)methyl)phenyl)-1-(4-((2S,3R,4R,5R)-2,3,4,5,6-pentahydroxyhexyl)piperazin-1-yl)ethan-1-one], the Emax lay within 50 to 100% and the EC50 was > 10000 nM.
Regarding `CC(C)OC(=O)N1CCC(CCCOc2ccc(CC(=O)N3CCN(C[C@H](O)[C@@H](O)[C@H](O)[C@H](O)CO)CC3)c(F)c2)CC1` [Example 104, isopropyl 4-(3-(3-fluoro-4-(2-oxo-2-(4-((2S,3R,4R,5R)-2,3,4,5,6-pentahydroxyhexyl)piperazin-1-yl)ethyl)phenoxy)propyl)piperidine-1-carboxylate], the Emax fell in the range of 100 to 130% and the EC50 is 100 to 1000 nM.
`O=C(Cc1ccc(OCCCC2CCN(C(=O)OC3(C(F)(F)F)COC3)CC2)cc1F)N1CCN(C[C@H](O)[C@@H](O)[C@H](O)[C@H](O)CO)CC1` [Example 105, 3-(trifluoromethyl)oxetan-3-yl 4-(3-(3-fluoro-4-(2-oxo-2-(4-((2S,3R,4R,5R)-2,3,4,5,6-pentahydroxyhexyl)piperazin-1-yl)ethyl)phenoxy)propyl)piperidine-1-carboxylate] gave an Emax of 100 to 130% and an EC50 of 100 to 1000 nM.
On the same counts, the results for `O=C(Cc1c(F)cc(OCCCC2CCN(C(=O)OC3(C(F)(F)F)COC3)CC2)cc1F)N1CCN(C[C@H](O)[C@@H](O)[C@H](O)[C@H](O)CO)CC1` [Example 106, 3-(trifluoromethyl)oxetan-3-yl 4-(3-(3,5-difluoro-4-(2-oxo-2-(4-((2S,3R,4R,5R)-2,3,4,5,6-pentahydroxyhexyl)piperazin-1-yl)ethyl)phenoxy)propyl)piperidine-1-carboxylate] are 100 to 130% and 100 to 1000 nM.
`CC1(CCCCOc2ccc(CC(=O)N3CCN(C[C@H](O)[C@@H](O)[C@H](O)[C@H](O)CO)CC3)c(F)c2)CCN(c2ncc(Cl)cn2)CC1` [Example 107, 2-(4-(4-(1-(5-chloropyrimidin-2-yl)-4-methylpiperidin-4-yl)butoxy)-2-fluorophenyl)-1-(4-((2S,3R,4R,5R)-2,3,4,5,6-pentahydroxyhexyl)piperazin-1-yl)ethan-1-one] returned an Emax of 100 to 130% and an EC50 of 100 to 1000 nM.
`O=C(Cc1ccc(OCCC2CC23CCN(c2ncc(Cl)cn2)CC3)cc1F)N1CCN(C[C@H](O)[C@@H](O)[C@H](O)[C@H](O)CO)CC1` (stereo partly drawn) [Example 108, 2-(4-(2-(6-(5-chloropyrimidin-2-yl)-6-azaspiro[2.5]octan-1-yl)ethoxy)-2-fluorophenyl)-1-(4-((2S,3R,4R,5R)-2,3,4,5,6-pentahydroxyhexyl)piperazin-1-yl)ethan-1-one] registered an Emax of 100 to 130% and an EC50 of 100 to 1000 nM.
On the same counts, the results for `O=C(Cc1ccc(OCCCC2CC23CCN(c2ncc(Cl)cn2)CC3)cc1F)N1CCN(C[C@H](O)[C@@H](O)[C@H](O)[C@H](O)CO)CC1` (stereo partly drawn) [Example 109, 2-(4-(3-(6-(5-chloropyrimidin-2-yl)-6-azaspiro[2.5]octan-1-yl)propoxy)-2-fluorophenyl)-1-(4-((2S,3R,4R,5R)-2,3,4,5,6-pentahydroxyhexyl)piperazin-1-yl)ethan-1-one] are 100 to 130% and 100 to 1000 nM.
On the same counts, the results for `O=C(Cc1ccc(OCCC2CC3(CCN(c4ncc(Cl)cn4)CC3)C2)cc1F)N1CCN(C[C@H](O)[C@@H](O)[C@H](O)[C@H](O)CO)CC1` [Example 110, 2-(4-(2-(7-(5-chloropyrimidin-2-yl)-7-azaspiro[3.5]nonan-2-yl)ethoxy)-2-fluorophenyl)-1-(4-((2S,3R,4R,5R)-2,3,4,5,6-pentahydroxyhexyl)piperazin-1-yl)ethan-1-one] are 100 to 130% and 100 to 1000 nM.
`O=C(Cc1ccc(OCCCC2CC3(CCN(c4ncc(Cl)cn4)CC3)C2)cc1F)N1CCN(C[C@H](O)[C@@H](O)[C@H](O)[C@H](O)CO)CC1` [Example 111, 2-(4-(3-(7-(5-chloropyrimidin-2-yl)-7-azaspiro[3.5]nonan-2-yl)propoxy)-2-fluorophenyl)-1-(4-((2S,3R,4R,5R)-2,3,4,5,6-pentahydroxyhexyl)piperazin-1-yl)ethan-1-one]: the Emax lay in the range of 100 to 130% and the EC50 was ≤ 100 nM.
On the same counts, the results for `O=C(Cc1ccc(OCCCCC2CC3(CCN(c4ncc(Cl)cn4)CC3)C2)cc1F)N1CCN(C[C@H](O)[C@@H](O)[C@H](O)[C@H](O)CO)CC1` [Example 112, 2-(4-(4-(7-(5-chloropyrimidin-2-yl)-7-azaspiro[3.5]nonan-2-yl)butoxy)-2-fluorophenyl)-1-(4-((2S,3R,4R,5R)-2,3,4,5,6-pentahydroxyhexyl)piperazin-1-yl)ethan-1-one] are 100 to 130% and 100 to 1000 nM.
On the same counts, the results for `O=C(Cc1ccc(OCCC2CCC23CCN(c2ncc(Cl)cn2)CC3)cc1F)N1CCN(C[C@H](O)[C@@H](O)[C@H](O)[C@H](O)CO)CC1` (stereo partly drawn) [Example 113, 2-(4-(2-(7-(5-chloropyrimidin-2-yl)-7-azaspiro[3.5]nonan-1-yl)ethoxy)-2-fluorophenyl)-1-(4-((2S,3R,4R,5R)-2,3,4,5,6-pentahydroxyhexyl)piperazin-1-yl)ethan-1-one] are 50 to 100% and > 10000 nM.
Turning to `O=C(Cc1ccc(OCC2CC(C3CCN(c4ncc(Cl)cn4)CC3)C2)cc1F)N1CCN(C[C@H](O)[C@@H](O)[C@H](O)[C@H](O)CO)CC1` (stereo partly drawn) [Example 114, 2-(4-((3-(1-(5-chloropyrimidin-2-yl)piperidin-4-yl)cyclobutyl)methoxy)-2-fluorophenyl)-1-(4-((2S,3R,4R,5R)-2,3,4,5,6-pentahydroxyhexyl)piperazin-1-yl)ethan-1-one], the Emax was 100 to 130% and the EC50 was ≤ 100 nM.
`O=C(Cc1ccc(OCCC2CC(C3CCN(c4ncc(Cl)cn4)CC3)C2)cc1F)N1CCN(C[C@H](O)[C@@H](O)[C@H](O)[C@H](O)CO)CC1` (stereo partly drawn) [Example 115, 2-(4-(2-(3-(1-(5-chloropyrimidin-2-yl)piperidin-4-yl)cyclobutyl)ethoxy)-2-fluorophenyl)-1-(4-((2S,3R,4R,5R)-2,3,4,5,6-pentahydroxyhexyl)piperazin-1-yl)ethan-1-one]: the Emax lay within 100 to 130% and the EC50 was in the range of 100 to 1000 nM.
